Reference: US20150313225A1
Like-named read-outs stand apart in the source and are kept apart here.

Legend:
Format in all cases: cell-based
Pyricularia oryzae = assay: microbe, parasite or virus in culture; settings: for Observed efficacy: solo product
Phytophthora infestans = assay: microbe, parasite or virus in culture; settings: for Observed efficacy: solo product
Botrytis cinerea = assay: Microtiterplate test against the grey mold Botrytis cinerea (Botrci); settings: solo product
Alternaria solani = assay: Microtest against early blight caused by Alternaria solani (Alteso); settings: solo product
Septoria tritici = assay: Microtest against leaf blotch on wheat caused by Septoria tritici (Septtr); settings: solo product
Leptosphaeria nodorum = assay: Microtest against wheat leaf spots caused by Leptosphaeria nodorum (Leptno); settings: solo product
[1] = Phytophthora infestans, 168 h, read-out: Observed efficacy
[2] = Botrytis cinerea, 168 h, 4 ppm, read-out: Observed efficacy
[3] = Alternaria solani, 168 h, 0.25 ppm, read-out: Observed efficacy
[4] = Parastagonospora nodorum, 168 h, 1 ppm, read-out: Observed efficacy
[5] = Pyricularia oryzae, 168 h, read-out: Observed efficacy
[6] = Botrytis cinerea, 168 h, 16 ppm, read-out: Observed efficacy
[7] = Alternaria solani, 168 h, read-out: Observed efficacy

With `CO/C=C(/C(=O)OC)c1ccccc1Oc1cc(Oc2ccccc2C#N)ncn1` [II-3, azoxystrobin, reference compound] the Observed efficacy (Pyricularia oryzae; 0.004 ppm) was 1, the Observed efficacy (Phytophthora infestans; 0.016 ppm) was 2 and the Observed efficacy (Botrytis cinerea; 4 ppm) was 14. The Observed efficacy (Botrytis cinerea; 16 ppm) was 23, the Observed efficacy (Alternaria solani; 0.004 ppm) was 6 and the Observed efficacy (Alternaria solani; 0.016 ppm) was 14. It also gave an Observed efficacy (Septoria tritici; 0.001 ppm) of 12.

`N#Cc1c(Cl)c(Cl)c(Cl)c(C#N)c1Cl` [II-11, chlorothalonil, reference compound] showed an inhibition of growth at 0.016 ppm (Phytophthora infestans; [1]) of 2%, an inhibition of growth at 1 ppm (Botrytis cinerea; Botrytis cinerea, 168 h, 1 ppm, read-out: Observed efficacy) of 23% and an inhibition of growth at 4 ppm (Botrytis cinerea; [2]) of 41%. For the same compound, the inhibition of growth at […] (Alternaria solani; Alternaria solani, 168 h, 0.063 ppm, read-out: Observed efficacy) was 4%, the inhibition of growth at […] (Alternaria solani; [3]) was 2% and the inhibition of growth at 1 ppm (Leptosphaeria nodorum; [4]) was 28%.

`Cc1ccc(-c2c(Cl)nc(C#N)n2S(=O)(=O)N(C)C)cc1` [II-12, cyazofamid, reference compound] gave an inhibition of growth at 4 ppm (Pyricularia oryzae; [5]) of 9%, an inhibition of growth at 0.004 ppm (Phytophthora infestans; [1]) of 8% and an inhibition of growth at 16 ppm (Botrytis cinerea; [6]) of 24%. It also gave an inhibition of growth at 4 ppm (Alternaria solani; [7]) of 14%, an inhibition of growth at 16 ppm (Alternaria solani; Alternaria solani, 168 h, 16 ppm, read-out: Observed efficacy) of 35% and an inhibition of growth at 16 ppm (Septoria tritici; Zymoseptoria tritici, 168 h, 16 ppm, read-out: Observed efficacy) of 40%.

With `CN1COCN(Cc2cnc(Cl)s2)/C1=N\[N+](=O)[O-]` [II-42c, thiamethoxam, reference compound] the inhibition of growth at 0.016 ppm (Pyricularia oryzae; [5]) was 3%, the inhibition of growth at 1 ppm (Pyricularia oryzae; [5]) was 56% and the inhibition of growth at 1 ppm (Phytophthora infestans; [1]) was 1%. For the same compound, the inhibition of growth at 4 ppm (Phytophthora infestans; [1]) was 2%, the inhibition of growth at 63 ppm (Botrytis cinerea; Botrytis cinerea, 168 h, 63 ppm, read-out: Observed efficacy) was 8% and the inhibition of growth at […] (Alternaria solani; [3]) was 8%. The inhibition of growth at 1 ppm (Alternaria solani; Alternaria solani, 168 h, 1 ppm, read-out: Observed efficacy) was 10%, the inhibition of growth at 4 ppm (Alternaria solani; [7]) was 51% and the inhibition of growth at 1 ppm (Leptosphaeria nodorum; [4]) was 22%. It also gave an inhibition of growth at 4 ppm (Leptosphaeria nodorum; Parastagonospora nodorum, 168 h, 4 ppm, read-out: Observed efficacy) of 51% and an inhibition of growth at 1 ppm (Septoria tritici; Zymoseptoria tritici, 168 h, 1 ppm, read-out: Observed efficacy) of 57%.

For `COC(=O)N(OC)c1ccccc1COc1ccn(-c2ccc(Cl)cc2)n1` [II-66, pyraclostrobin, reference compound], the inhibition of growth at 0.004 ppm (Pyricularia oryzae; [5]) was 59%, the inhibition of growth at 0.016 ppm (Phytophthora infestans; [1]) was 9% and the inhibition of growth at 4 ppm (Botrytis cinerea; [2]) was 29%. For the same compound, the inhibition of growth at 16 ppm (Botrytis cinerea; [6]) was 66%, the inhibition of growth at 0.004 ppm (Alternaria solani; Alternaria solani, 168 h, 0.004 ppm, read-out: Observed efficacy) was 8% and the inhibition of growth at 0.001 ppm (Septoria tritici; Zymoseptoria tritici, 168 h, 0.001 ppm, read-out: Observed efficacy) was 12%. The inhibition of growth at 0.004 ppm (Septoria tritici; Zymoseptoria tritici, 168 h, 0.004 ppm, read-out: Observed efficacy) was 37% and the inhibition of growth at 6.3e-05 ppm (Septoria tritici; Zymoseptoria tritici, 168 h, […], read-out: Observed efficacy) was 7%.

Work on `C[N+]1(C)CCCCC1.[Cl-]` [Mepiquat-cl] yielded an Observed efficacy (Pyricularia oryzae; 1 ppm) of 2, an Observed efficacy (Pyricularia oryzae; 4 ppm) of 1 and an Observed efficacy (Pyricularia oryzae; 16 ppm) of 4. For the same compound, the Observed efficacy (Phytophthora infestans; 4 ppm) was 5, the Observed efficacy (Botrytis cinerea; 16 ppm) was 11 and the Observed efficacy (Alternaria solani; 16 ppm) was 10. For the same compound, the Observed efficacy (Alternaria solani; 63 ppm) was 16, the Observed efficacy (Leptosphaeria nodorum; 63 ppm) was 28 and the Observed efficacy (Septoria tritici; 63 ppm) was 16.

`OC(Cc1ccccc1Cl)(Cn1nc[nH]c1=S)C1(Cl)CC1` (stereo not drawn) [Prothioconazol] gave an Observed efficacy (Pyricularia oryzae; 1 ppm) of 13, an Observed efficacy (Pyricularia oryzae; 4 ppm) of 23 and an Observed efficacy (Phytophthora infestans; 1 ppm) of 4. It also gave an Observed efficacy (Phytophthora infestans; 4 ppm) of 12, an Observed efficacy (Phytophthora infestans; 16 ppm) of 35 and an Observed efficacy (Botrytis cinerea; 1 ppm) of 36. For the same compound, the Observed efficacy (Botrytis cinerea; 4 ppm) was 72, the Observed efficacy (Alternaria solani; 1 ppm) was 66 and the Observed efficacy (Leptosphaeria nodorum; 1 ppm) was 43. It also gave an Observed efficacy (Septoria tritici; 0.016 ppm) of 17.
